Earlier results as cited in patent publication US20120309684A1, “CONJUGATES FOR DELIVERY OF BIOLOGICALLY ACTIVE COMPOUNDS” (ISIS INNOVATION LIMITED, priority 2009, published 2012).

Key:
[1] = system: cardiac compared with skeletal muscle
dystrophin protein = settings: seven weekly doses at 100 mg/kg, systemic intravenous

Substance: ASSLNIA (Sequence for inclusion in target-delivery peptide) [MSP]
- lower binding affinity for cardiac compared with skeletal muscle [1]: 2-3 fold

Substance: GGCCAAACCTCGGCTTACCTGAAAT (all phosphorodiamidate morpholino (PMO); Tested constructs carry cell-penetrating peptides (B, MSP) conjugated to PMO)
- restoration of dystrophin protein with naked PMO (dystrophin protein): moderate restoration
